According to US11596636B2, “Tailored combinatorial epigenetic therapies for P53 gain-of-function tumors” (The Trustees of the University of Pennsylvania, priority 2014, dated 2023):
Each block holds one molecule with its values, some of them ahead of it.

How the values were obtained:
[1] = system: MDAH087 cells (p53 R248W, GOF p53); experiment: Growth curve analysis of LFS MDAH087 cells; format: cell-based, human; details: OICR-9429 2 μM or 4 μM, vs DMSO
Procedure: (§1) (FIG. 10A) Endogenous co-IP of Menin and MLL1 in LFS MDAH087 cells upon treatment of DMSO or different concentrations of ISC-30.
(§2) Li-Fraumeni Syndrome cell lines MDAH087 and MDAH041 were obtained from Dr. Michael A. Tainsky (Wayne State University, Detroit, Mich.) as a kind gift, and were cultured at 3% oxygen, in standard tissue culture medium.
(§3) 200,000 cells were seeded on 950 mm^2 surface area (one well of 6-well plate) on Day 0. Cell number was measured every two days with Countess Automated Cell Counter (Life Technologies) following its standard procedure, and then 200,000 cells were plated back for the next counting. For shRNA mediated knockdown experiments, cells were seeded seven days after the initial infection of shRNA-containing lentivirus, during which puromycin selection was completed and cells were already put back to normal growth medium. For small compound inhibitor treatment experiments, inhibitors were added on Day 0 as cells were seeded and refreshed every other day as cells were counted and plated back.

[2] = molecular target: T1, menin-MLL1 interaction in MDAH087 cells (p53 GOF) (Homo sapiens, UniProt O00255); experiment: Endogenous co-IP of Menin and MLL1 in LFS MDAH087 cells; format: cell-based; details: different concentrations, vs DMSO
T1 construct: endogenous in cells; host or cells: LFS MDAH087 (p53 R248W) and MDAH041 (p53 null) cells
T1 sequence (O00255 1-610): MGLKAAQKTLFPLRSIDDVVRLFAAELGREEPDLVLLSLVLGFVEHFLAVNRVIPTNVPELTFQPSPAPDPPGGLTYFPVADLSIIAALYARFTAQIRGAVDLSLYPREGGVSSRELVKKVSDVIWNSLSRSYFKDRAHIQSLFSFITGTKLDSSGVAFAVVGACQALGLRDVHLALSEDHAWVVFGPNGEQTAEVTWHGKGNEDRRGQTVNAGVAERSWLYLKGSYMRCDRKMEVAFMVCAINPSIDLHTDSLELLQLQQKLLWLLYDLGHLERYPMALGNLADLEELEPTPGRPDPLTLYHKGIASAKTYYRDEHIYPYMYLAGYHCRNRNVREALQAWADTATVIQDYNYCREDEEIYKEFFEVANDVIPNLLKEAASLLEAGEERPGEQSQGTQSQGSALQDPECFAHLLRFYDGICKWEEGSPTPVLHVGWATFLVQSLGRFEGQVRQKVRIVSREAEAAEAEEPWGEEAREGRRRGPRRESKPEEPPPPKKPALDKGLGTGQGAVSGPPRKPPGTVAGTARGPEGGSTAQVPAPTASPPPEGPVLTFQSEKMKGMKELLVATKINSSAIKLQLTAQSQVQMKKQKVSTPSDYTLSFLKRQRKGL
Procedure: (FIG. 10A) Endogenous co-IP of Menin and MLL1 in LFS MDAH087 cells upon treatment of DMSO or different concentrations of ISC-30. (FIG. 10B) & (FIG. 10C) Growth curve analysis of LFS (FIG. 10B) MDAH087 and (FIG. 10C) MDAH041 cells treated with DMSO, […] ISC-30 Menin inhibitor. (FIG. 10D) & (FIG. 10E) Growth curve analysis of LFS (FIG. 10D) MDAH087 and (FIG. 10E) MDAH041 cells treated with DMSO, […], or 20 μM MI-2-2 Menin inhibitor. (FIG. 10F) and (FIG. 10G) Growth curve analysis of LFS (FIG. 10F) MDAH087 and (FIG. 10G) MDAH041 cells treated with DMSO, 2 μM, or 4 μM OICR-9429 WDR5 inhibitor.
Flag tagged ETS2 protein was expressed in HEK293T cells, which was then subjected to immunoprecipitation with Flag antibody conjugated Dynabeads. Then after washes, HA tagged WT or GOF p53 (generated by in vitro translation method (Thermo #88881)) was added to co-immunoprecipitate with Flag-ETS2. Endogenous co-IP experiments were performed in buffer containing: 20 mM Tris, pH 8.0, 137 mM NaCl, 1 mM MgCl2, 1 mM CaCl2, 1% NP-40, 10% glycerol, plus complete protease and phosphatase inhibitor (without EDTA), plus 12.5 U/ml benzonase (Novagen, 70746).

[3] = system: AT-1 cells (MLL-AF9 leukemia cell line); experiment: Growth analysis of AT-1 cells; format: cell-based, mouse; details: 10 μM ISC-30 vs DMSO
Procedure: FIG. 15, comprising FIG. 15A through FIG. 15G, depicts the results of example experiments. (FIG. 15A) Chemical structure of ISC-30 compound [N,N′-bis(4-aminophenyl)-N,N′-dimethylethylenediamine]. (CID: 193110, NCI: 129674, Chemical formula: C16H22N4 Molecular weight: 270.37) (FIG. 15B) His-SUMO-MeninΔ460-519 (Menin) was titrated into wells containing fluorescence polarization buffer and FITC-MLL peptide (1.5 nM) to allow fluorescence polarization monitoring and calculation of the binding affinity. (FIG. 15C) Wild-type (WT) or Mutant (Mut) competitor MLL peptides were titrated into wells containing fluorescence polarization butter, His-SUMO-MeninΔ460-519 (5 nM), and FITC-MLL peptide (1.5 nM) and the inhibition of fluorescence polarization was monitored and utilized to normalize the ISC30 inhibition. […] (FIG. 15D) Peptide displacement assay measuring ISC-30 inhibition of menin-MLL1 interaction by the decrease in fluorescence polarization (FP) signal of a FITC labeled MLL1 peptide upon ISC-30 induced dissociation from menin. […]
200,000 cells were seeded on 950 mm^2 surface area (one well of 6-well plate) on Day 0. Cell number was measured every two days with Countess Automated Cell Counter (Life Technologies) following its standard procedure, and then 200,000 cells were plated back for the next counting. […]

[4] = molecular target: T2, menin-MLL1 interaction in MDAH041 cells (p53 null) (Homo sapiens, UniProt O00255); experiment: Endogenous co-IP of Menin and MLL1 in LFS MDAH041 cells; format: cell-based; details: different concentrations, vs DMSO
T2 construct: endogenous in cells; host or cells: LFS MDAH087 (p53 R248W) and MDAH041 (p53 null) cells
T2 sequence (O00255 1-610): T1 sequence (O00255 1-610)

[5] = system: Hoxa cluster genes in AT-1 cells (MLL-AF9 leukemia cell line); experiment: HoxA5 and HoxA9 mRNA levels in AT-1 cells; format: cell-based, mouse; details: after 2 days of treatment, vs DMSO
Procedure: FIG. 15, comprising FIG. 15A through FIG. 15G, depicts the results of example experiments. (FIG. 15A) Chemical structure of ISC-30 compound [N,N′-bis(4-aminophenyl)-N,N′-dimethylethylenediamine]. (CID: 193110, NCI: 129674, Chemical formula: C16H22N4 Molecular weight: 270.37) (FIG. 15B) His-SUMO-MeninΔ460-519 (Menin) was titrated into wells containing fluorescence polarization buffer and FITC-MLL peptide (1.5 nM) to allow fluorescence polarization monitoring and calculation of the binding affinity. (FIG. 15C) Wild-type (WT) or Mutant (Mut) competitor MLL peptides were titrated into wells containing fluorescence polarization butter, His-SUMO-MeninΔ460-519 (5 nM), and FITC-MLL peptide (1.5 nM) and the inhibition of fluorescence polarization was monitored and utilized to normalize the ISC30 inhibition. All measurements were blanked by subtracting the background signal taken from wells containing only buffer. mP=millipolarization. (FIG. 15D) Peptide displacement assay measuring ISC-30 inhibition of menin-MLL1 interaction by the decrease in fluorescence polarization (FP) signal of a FITC labeled MLL1 peptide upon ISC-30 induced dissociation from menin. (FIG. 15E) HoxA5 and HoxA9 mRNA levels after 2 days of ISC-30 or DMSO (vehicle control) treatment in AT-1 cells (mouse MLL-AF9 leukemia cell line). (FIG. 15F) Growth analysis of AT-1 cells treated with DMSO or 10 μM ISC-30. […]

MDAH041 cells (p53 null) = experiment: Growth curve analysis of LFS MDAH041 cells; format: cell-based, human; details: OICR-9429 2 μM or 4 μM, vs DMSO
Procedure: as §1, §2, §3

[6] = molecular target: T3, menin-MLL1 interaction (His-SUMO-Menin-Δ460-519, FITC-MLL peptide) (Homo sapiens, UniProt O00255, DEL460-519); experiment: Fluorescence polarization competition assay, FITC-MLL peptide displacement from menin; format: binding; details: FITC-MLL peptide 1.5 nM, His-SUMO-Menin-Δ460-519 5 nM
T3 construct: made in house; host or cells: Rosetta (DE3-pLysS) E. coli
T3 sequence (O00255 with tags, fused parts or gaps DEL460-519): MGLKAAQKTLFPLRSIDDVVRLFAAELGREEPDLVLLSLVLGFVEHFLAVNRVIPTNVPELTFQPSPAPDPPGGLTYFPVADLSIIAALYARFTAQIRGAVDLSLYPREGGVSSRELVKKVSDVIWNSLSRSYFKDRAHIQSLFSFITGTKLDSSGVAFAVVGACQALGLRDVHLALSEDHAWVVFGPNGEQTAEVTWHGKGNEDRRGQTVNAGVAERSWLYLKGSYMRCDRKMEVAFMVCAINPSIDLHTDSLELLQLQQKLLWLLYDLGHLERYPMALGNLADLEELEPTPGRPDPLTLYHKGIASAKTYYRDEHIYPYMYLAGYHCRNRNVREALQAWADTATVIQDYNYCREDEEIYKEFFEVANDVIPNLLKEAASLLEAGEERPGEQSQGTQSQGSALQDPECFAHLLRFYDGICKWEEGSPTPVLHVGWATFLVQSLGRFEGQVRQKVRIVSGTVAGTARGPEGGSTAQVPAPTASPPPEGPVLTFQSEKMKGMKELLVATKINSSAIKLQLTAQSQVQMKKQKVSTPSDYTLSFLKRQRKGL
Procedure: FIG. 15, comprising FIG. 15A through FIG. 15G, depicts the results of example experiments. (FIG. 15A) Chemical structure of ISC-30 compound [N,N′-bis(4-aminophenyl)-N,N′-dimethylethylenediamine]. (CID: 193110, NCI: 129674, Chemical formula: C16H22N4 Molecular weight: 270.37) (FIG. 15B) His-SUMO-MeninΔ460-519 (Menin) was titrated into wells containing fluorescence polarization buffer and FITC-MLL peptide (1.5 nM) to allow fluorescence polarization monitoring and calculation of the binding affinity. (FIG. 15C) Wild-type (WT) or Mutant (Mut) competitor MLL peptides were titrated into wells containing fluorescence polarization butter, His-SUMO-MeninΔ460-519 (5 nM), and FITC-MLL peptide (1.5 nM) and the inhibition of fluorescence polarization was monitored and utilized to normalize the ISC30 inhibition. All measurements were blanked by subtracting the background signal taken from wells containing only buffer. mP=millipolarization. (FIG. 15D) Peptide displacement assay measuring ISC-30 inhibition of menin-MLL1 interaction by the decrease in fluorescence polarization (FP) signal of a FITC labeled MLL1 peptide upon ISC-30 induced dissociation from menin. […]
ISC30 was titrated into the wells of a 384-well plate containing fluorescence polarization buffer (40 mM HEPES pH 7.9, 150 mM NaCl, 0.01% Triton-X-100, 10 mM 2-mercaptoethanol), FITC-MLL peptide (1.5 nM), and His-SUMO-Menin-Δ460-519 (5 nM). […]

[7] = system: mll1 in MCF7 cells (WT p53); experiment: mll1 mRNA (RT-qPCR) and MLL1 protein (western blot) upon Nutlin treatment in MCF7 cells; details: Nutlin vs DMSO
From the text: (FIG. 13B) RT-qPCR analysis of mRNA expression level changes upon DMSO or Nutlin treatment in MCF7 cells. (FIG. 13C) Western blot analysis of MLL1 protein levels upon DMSO or Nutlin treatment in MCF7 cells.

[8] = system: H3K9ac in MDA468 cells (p53 R273H); experiment: Western blot of H3K9ac in MDA468 cells with mutant p53 knockdown; format: cell-based, human; details: etoposide treatment
From the text: FIG. 4A depicts western blots depicting changes in histone modification (H3K4me3 and H3K9ac) in MDA468 cell line in response to control or p53 knockdown. FIG. 4B depicts the change in the abundance of H3K4me3 and H3K9ac following p53 GOF mutant knockdown, as well as the functional implication that the Rho and Ras pathways are most affected by p53 GOF mutant knockdown.
Experiments were next conducted to evaluate the functional outcomes of the p53 GOF regulation of histone modification. FIG. 4A (left) depicts a Western blot analysis of the MDA468 cell line in response to control or p53 knockdown. It is shown that H3K9Ac decreases in response to knockdown of mutant p53, but no other histone modifications appear to be affected.

concentration at which the compound started to inhibit menin-MLL1 interaction [6]: approximately 2 μM
IC50 ([6]; normalized IC50, read-out: IC50, inhibition of menin-MLL1 interaction): 32 µM
SMILES: CN(CCN(C)c1ccc(N)cc1)c1ccc(N)cc1 [ISC-30, N,N′-bis(4-aminophenyl)-N,N′-dimethylethylenediamine]
GOF p53 cell growth [1]: dose-dependent inhibition
menin-MLL1 interaction at endogenous levels (co-IP) [2]: blocked menin-MLL1 interaction at endogenous levels in a dose-dependent manner
growth of AT-1 cells [3]: reduced
menin-MLL1 interaction at endogenous levels (co-IP) [4]: blocked menin-MLL1 interaction at endogenous levels in a dose-dependent manner
expression of Hoxa cluster genes (HoxA5 and HoxA9 mRNA levels) [5]: decreased expression of Hoxa cluster genes
p53 null cell growth (MDAH041 cells (p53 null)): very little effect

SMILES: CC1(C)CN=C(N2CCN(c3ncnc4sc(CC(F)(F)F)cc34)CC2)S1 [MI-2-2]
GOF p53 cell growth [1]: dose-dependent inhibition

SMILES: COc1ccc(C2=NC(c3ccc(Cl)cc3)C(c3ccc(Cl)cc3)N2C(=O)N2CCNC(=O)C2)c(OC(C)C)c1 (stereo not shown) [Nutlin]
mll1 expression upon stabilization and elevation of WT p53 levels [7]: not upregulated

SMILES: CN1CCN(c2ccc(-c3cccc(CN4CCOCC4)c3)cc2NC(=O)c2c[nH]c(=O)cc2C(F)(F)F)CC1 [OICR-9429]
GOF p53 cell growth [1]: dose-dependent inhibition
p53 null cell growth (MDAH041 cells (p53 null)): little effect

SMILES: COc1cc([C@@H]2c3cc4c(cc3[C@@H](O[C@@H]3O[C@@H]5CO[C@@H](C)O[C@H]5[C@H](O)[C@H]3O)[C@H]3COC(=O)[C@H]23)OCO4)cc(OC)c1O [etoposide]
loss of H3K9ac in response to knockdown of mutant p53 [8]: not affected
